For 38 compounds, GI50 and TGI results are on record in PubChem BioAssay (NCI).

This experiment concerns MDA-MB-468 breast. As to the kind of experiment: DTP human tumour cell line panel, 48 h.

Molecules are shown by their SMILES.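 Cells were grown in 96-well plates and exposed to each compound for 48 hours at five concentrations; endpoints were interpolated linearly between bracketing concentrations, or set to the highest concentration if not reached. GI50 = concentration required for 50% inhibition of growth. TGI denotes the concentration required for complete inhibition of growth.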

Usually GI50 stands for the concentration giving 50% growth inhibition. By TGI is commonly meant the concentration giving total growth inhibition. A higher TGI goes with less potent growth arrest. Consider `CCCCCc1ccc(S(=O)(=O)Nc2cc(-c3csc(NC(=O)CN4CCN(CCO)CC4)n3)ccc2OC)cc1`, for which the GI50 is 1.75 µM and the TGI came to 3.6 µM.
Regarding `COc1ccc(Cc2cnc(NC(=O)c3ccc4c(c3)OCCO4)s2)cc1`, the GI50 is 0.0376 µM and the TGI turned out to be 24.7 µM.
In the case of `Cn1c(=O)c2c(ncn2CC(=O)Nc2ccc(-c3ccccc3)nn2)n(C)c1=O`, the GI50 was 31.4 µM and the TGI is more than 100 µM.
As to `CN1CCN(Cc2ccc(NC(=O)c3cncc(C#Cc4cnc5[nH]ncc5c4)c3)cc2C(F)(F)F)CC1`, the GI50 was 1.74 µM and the concentration for total growth inhibition (TGI) was determined as 13.5 µM.
In the case of `C/C(=N\NC(=S)N1CC2CCC(CC2)C1)c1ccccn1`, the 50% growth inhibitory concentration (GI50) is less than 0.01 µM and the TGI worked out at 0.104 µM.
For `COc1ccc2c(Oc3ccc(NC(=O)c4c(C)n(CC(C)(C)O)n(-c5ccccc5)c4=O)nc3)ccnc2c1`, in that order: 16.1 µM and more than 96.6 µM.
For `CCCCCc1ccc(S(=O)(=O)Nc2cc(-c3csc(NC(C)=O)n3)ccc2N2CCN(C)CC2)cc1`, in that order: 3.73 µM and 8.42 µM.
For `Clc1cc(Cl)cc(Nc2ccc3cc(OCCCN4CCOCC4)ccc3n2)c1`, in that order: 2.2 µM and 6.23 µM.
As for `CN1CCN(c2ccc(Nc3ncc4cc(C#N)c(=O)n(C5CCCC5)c4n3)cc2)CC1`, the GI50 was 3.46 µM and the TGI was more than 100 µM.
For `O=c1oc2ccc(Br)cc2c(=O)n1-c1ccc(F)cc1F`, in that order: 2.09 µM and 5.92 µM.
For `O=C(CCCCCCNC(=O)C(O)(O)C(F)(F)F)Nc1ncc(-c2ccccc2)s1`, in that order: 0.748 µM and 10.9 µM.
As for `Cc1c2ccncc2c(C)c2c1[nH]c1ccccc12`, the GI50 was 1.16 µM and the TGI was determined as 8.74 µM.
For `O=C(Nc1ccc(Cl)c(Cl)c1)Nc1ccccc1O`, in that order: 6.26 µM and 33.6 µM.
As to `COC(=O)CCC1=C(CC(=O)OC)C(C)=N/C1=C\c1[nH]c(-c2ccc[nH]2)cc1OC`, the GI50 is 3.48 µM and the TGI came to 17 µM.
On to `O=C(NO)c1ccc(CN(c2cnccn2)c2cnccn2)cc1`, for which the GI50 is 10.5 µM and the TGI was found to be 28.4 µM.
For `COC(C(=O)[C@@H](O)[C@@H](C)O)[C@@H]1Cc2cc3cc(O[C@H]4C[C@@H](O[C@H]5C[C@@H](O)[C@H](O)C(C)O5)[C@H](O)C(C)O4)c(C)c(O)c3c(O)c2C(=O)[C@H]1O[C@H]1C[C@@H](O[C@H]2C[C@@H](O[C@H]3C[C@@H](O)[C@H](OC)C(C)O3)[C@@H](O)C(C)O2)[C@H](O)C(C)O1` (stereo partly specified), in that order: 0.0329 µM and 0.259 µM.
With `CC1C(c2ccc3c(c2)OCO3)c2cc3c(cc2OC1N1CCOCC1)OCO3` (stereo unspecified), the GI50 is 19.6 µM and the concentration for total growth inhibition (TGI) was 60.3 µM.
Take `O=C1C(c2ccccc2)=C(N2CCc3ccccc32)OC1(Cl)Cl`: the GI50 was 1.63 µM and the TGI worked out at 3.25 µM.
For `COC[C@]12CC[C@@H](C)[C@H](C)[C@H]1C1=CC[C@@H]3[C@@]4(C)CCCNC(C)(C)[C@@H]4CC[C@@]3(C)[C@]1(C)CC2`, in that order: 1.71 µM and 3.43 µM.
For `CC/C=C/C/C=C/C/C=C/C/C=C/C/C=C/C/C=C/CCC(=O)Nc1ccn([C@@H]2O[C@H](CO)[C@@H](O)C2(F)F)c(=O)n1`, in that order: 0.384 µM and more than 64.6 µM.
For `Cn1cc(-c2ccc(-c3cncc(Cl)c3N3CCC4(CCNC4=O)CC3)cc2)cn1`, in that order: 19.9 µM and more than 100 µM.
`COc1ccc(/C=C(/c2ccccc2)[N+](=O)[O-])cc1`: the GI50 is 1.46 µM and the TGI came to 3.31 µM.
For `COc1ccc2c(c1)c(-c1cc(N)n3nc(-c4cn(C)c5ccc(OC)cc45)cc3n1)cn2C`, in that order: 1.87 µM and 3.66 µM.
For the compound `CCN(CC)c1cc2oc3cc(N)cc(=N)c-3nc2cc1C`, the GI50 is 2.59 µM and the TGI came out at 9.37 µM.
Turning to `COc1ccc2c(c1)C(C)Cc1c(ncnc1-n1cnc3cc(C)ccc31)N2C` (stereo unspecified), the GI50 was 0.0341 µM and the TGI is 18.9 µM.
For `O=C(NCc1ccc(S(=O)(=O)c2cc(F)cc(F)c2)cc1)c1ccc2nccn2c1`, in that order: 9.27 µM and more than 100 µM.
As for `COc1c(O)c(O)cc2c1-c1ccc(OC)c(=O)cc1C(NC(C)=O)CC2` (stereo unspecified), the GI50 is 16.9 µM and the TGI was more than 100 µM.
For `O=C(OCc1ccc2c(Cl)cc(Cl)c(O)c2n1)N1CCN(C(=O)c2cc3cc(F)ccc3[nH]2)CC1`, in that order: 0.558 µM and more than 27.9 µM.
For `O=C(N/N=C/c1c(Cl)cccc1Cl)c1ccc(C(F)(F)F)nc1Nc1cccc(C(F)(F)F)c1`, in that order: 0.52 µM and 3.62 µM.
For `COc1ccc(-c2csc(NC(=O)CSc3nc(C)c(-c4ccccc4)n3Nc3ccccc3)n2)cc1`, in that order: more than 100 µM and more than 100 µM.
On to `O=C(Nc1ccc(-n2cc(-c3ccncc3)c(-c3ccc(O)c(Cl)c3)n2)cc1)Nc1cccc(Cl)c1Cl`, for which the GI50 was 9.23 µM and the TGI is more than 32.5 µM.
For `Nc1ccccc1SC1CC(=O)N(c2ccc(Cl)c(Cl)c2)C1=O` (stereo unspecified), in that order: 18.4 µM and more than 100 µM.
Consider `Cc1cc(C)n(-c2nnc3n2N=C(c2ccc(-c4ccccc4)cc2)CS3)n1`, for which the GI50 is 2.27 µM and the TGI stood at 6.76 µM.
With `C[C@]12CC[C@@H]3c4ccc(O)c([N+](=O)[O-])c4CC[C@H]3[C@@H]1CC[C@@H]2NS(=O)(=O)c1cccc(Br)c1`, the GI50 was 2.74 µM and the TGI is 7.69 µM.
For `O=C(N/N=C/c1ccc([N+](=O)[O-])o1)c1ccc(O)cc1`, in that order: 2.44 µM and 10.7 µM.
For `N#Cc1ccc(OC(=O)Nc2ccc(Cl)c(Cl)c2)cc1`, in that order: 3.13 µM and 15.9 µM.
For `NC(=S)N/N=C/c1cc(-c2cccc(N)c2)ccn1`, in that order: 1.43 µM and 4.49 µM.
With `CCCCCCCCCCN1CCC(N2CCCCC2)CC1`, the GI50 was 1.44 µM and the TGI is 3.01 µM.
